Drawing on patent publication US10131664B2 (Celgene Quanticel Research, Inc., priority 2013, dated 2018), this text covers IC50 for 32 compounds.

Counter-ions that a name gives are not always drawn.

The target of one assay is full-length human LSD1 (Homo sapiens (Human), UniProt O60341). As to the kind of experiment: In vitro enzyme inhibition assay LSD-1 (TR-FRET). The note with it: TR-FRET, 0.1 nM LSD1, 50 nM H3K4me1-biotin peptide, 2 μM FAD, pH7.3; read-out: LSD1 IC50. The class given is biochemical. The procedure: This assay determines the ability of a test compound to inhibit LSD1 demethylase activity.
The enzymatic assay of LSD1 activity is based on Time Resolved-Fluorescence Resonance Energy Transfer (TR-FRET) detection.
The ability of the compounds disclosed herein to inhibit LSD1 activity was quantified and the respective IC50 value was determined. Table 5 provides the IC50 values of various substituted heterocyclic compounds disclosed herein.

A further assay relates to THP-1 (AML) cells. As to the kind of experiment: LSD1 CD11b cellular assay (flow cytometry). The following applies: Homo sapiens, 96 h; CD11b expression in THP-1 (AML) cells, flow cytometry, 4 days incubation; read-out: Cellular IC50. The assay is classed as cell-based. The procedure: To analyze LSD1 inhibitor efficacy in cells, a CD11b flow cytometry assay was performed. LSD1 inhibition induces CD11b expression in THP-1 (AML) cells which can be measured by flow cytometry. […] LSD1 test compounds were serially diluted in DMSO. The dilutions were added to each well accordingly to a final concentration of 0.2% DMSO. The cells were incubated at 37° C. in 5% CO2 for 4 days. 250 μL of each well was transferred to a well in a 96 well round bottom plate. The plate was centrifuged at 1200 rpm at 4 degrees Celsius in a Beckman Coulter Alegra 6KR centrifuge for 5 min. The media was removed leaving the cells at the bottom of the wells. The cells were washed in 100 μL cold HBSS (Hank's Balanced Salt Solution) plus 2% BSA (Bovine Serum Albumin) solution and centrifuged at 1200 rpm at 4° C. for 5 min. The wash was removed. […] The cells were centrifuged and washed two times in 100 μl HBSS plus 2% BSA. After the final spin the cells were resuspended in 100 μL HBSS plus 2% BSA containing 1 μg/mL DAPI (4′,6-diamidino-2-phenylindole). The cells were then analyzed by flow cytometry in a BD FACSAria machine. Cells were analyzed for CD11b expression. The percent of CD11b expressing cells for each inhibitor concentration was used to determine an IC50 curve for each compound analyzed.

Turning to `N#Cc1ccc(-c2nc(NCC3CNCCO3)ncc2-c2ccc(F)cc2)cc1` (racemic) [Example 34, (±)-4-[5-(4-fluorophenyl)-2-[(morpholin-2-ylmethyl)amino]pyrimidin-4-yl]benzonitrile], on full-length human LSD1, the IC50 fell in the range of 100 to 1000 nM.
For `Cc1ccc(-c2cnc(NCC3(F)CCNC3)nc2-c2ccc(C#N)cc2)cc1` (single isomer, unassigned; (+)) [Example 28, (+)-4-(2-{[(3-fluoropyrrolidin-3-yl)methyl]amino}-5-(4-methylphenyl)pyrimidin-4-yl)benzonitrile], the IC50 with THP-1 (AML) cells lay within 100 to 1000 nM.
Still for that read-out and setting: under `Cc1ccc(-c2cnc(NC3CCCNC3)nc2-c2ccc(C#N)cc2)cc1` (single isomer, unassigned; (+)) [Example 29, (+)-4-[5-(4-methylphenyl)-2-[(piperidin-3-yl)amino]pyrimidin-4-yl]benzonitrile] stands 100 to 1000 nM.
As for `COc1ccc(-c2nc3ccn(CC4CCNC4)c3cc2-c2ccc(C#N)c(F)c2)cc1F` (stereo in doubt) [Example 55, 4-{1-[((3R)pyrrolidin-3-yl)methyl]-5-(3-fluoro-4-methoxyphenyl)pyrrolo[3,2-b]pyridin-6-yl}-2-fluorobenzenecarbonitrile, HCl salt], the IC50 at full-length human LSD1 and with THP-1 (AML) cells was < 100 nM throughout.
For the compound `Cc1ccc(-c2nc3ccn(C[C@@H]4CCNC4)c3cc2-c2ccc(C#N)cc2)cc1` [Example 1, 4-[5-(4-methylphenyl)-1-[[(3R)-pyrrolidin-3-yl]methyl]pyrrolo[3,2-b]pyridin-6-yl]benzonitrile], the IC50 on full-length human LSD1 and with THP-1 (AML) cells was < 100 nM throughout.
Take `N#Cc1ccc(-c2cc3c(ccn3C[C@@H]3CCNC3)nc2Cl)cc1` [Example 2]: in the assay on THP-1 (AML) cells, the IC50 lay in the range of 1000 to 10000 nM.
For `Cc1ccc(-c2nc3ccn(C[C@H]4CCNC4)c3cc2-c2ccc(C#N)cc2)cc1` [Example 3, 4-[5-(4-methylphenyl)-1-[[(3S)-pyrrolidin-3-yl]methyl]pyrrolo[3,2-b]pyridin-6-yl]benzonitrile], the IC50 on full-length human LSD1 and with THP-1 (AML) cells was < 100 nM each time.
As for `N#Cc1ccc(-c2cc3c(ccn3C[C@H]3CCNC3)nc2Cl)cc1` [Example 4, 4-[5-chloro-1-[[(3S)-pyrrolidin-3-yl]methyl]pyrrolo[3,2-b]pyridin-6-yl]benzonitrile], the IC50 lay within 100 to 1000 nM at full-length human LSD1 and 1000 to 10000 nM with THP-1 (AML) cells.
In the same order, the values of `N#Cc1ccc(-c2cc3c(ccn3C[C@H]3CCNC3)nc2-c2ccc(F)cc2)cc1` [Example 5, 4-[5-(4-fluorophenyl)-1-[[(3S)-pyrrolidin-3-yl]methyl]pyrrolo[3,2-b]pyridin-6-yl]benzonitrile] are < 100 nM and 1000 to 10000 nM.
As to `N#Cc1ccc(-c2cc3c(ccn3C[C@@H]3CCNC3)nc2N2CCOCC2)cc1` [Example 6, 4-[5-morpholin-4-yl-1-[[(3R)-pyrrolidin-3-yl]methyl]pyrrolo[3,2-b]pyridin-6-yl]benzonitrile], the IC50 at full-length human LSD1 was 100 to 1000 nM; with THP-1 (AML) cells, 1000 to 10000 nM.
Taken in the same sequence, the figures for `N#Cc1ccc(-c2cc3c(ccn3C[C@H]3CCNC3)nc2N2CCOCC2)cc1` [Example 7, 4-[5-morpholin-4-yl-1-[[(3S)-pyrrolidin-3-yl]methyl]pyrrolo[3,2-b]pyridin-6-yl]benzonitrile] were < 100 nM and 100 to 1000 nM.
As for `N#Cc1ccc(-c2cc3c(ccn3CC3(F)CCNC3)nc2N2CCOCC2)cc1` (stereo not drawn) [Example 8, 4-[1-[(3-fluoropyrrolidin-3-yl)methyl]-5-morpholin-4-ylpyrrolo[3,2-b]pyridin-6-yl]benzonitrile], the IC50 at full-length human LSD1 lay within 100 to 1000 nM.
Still for that read-out and setting: next, `N#Cc1ccc(-c2nc(NC[C@H]3CCNC3)ncc2Cl)cc1` [Example 17, 4-(5-chloro-2-{[(3S)-pyrrolidin-3-ylmethyl]amino}pyrimidin-4-yl)benzonitrile]: 100 to 1000 nM.
Still for that read-out and setting: next, `N#Cc1ccc(-c2nc(N3CC[C@@H]4CNC[C@@H]4CC3)ncc2-c2ccc(F)cc2)cc1` [Example 24, 4-{2-[(3aR,8aS)-decahydropyrrolo[3,4-d]azepin-6-yl]-5-(4-fluorophenyl)pyrimidin-4-yl}benzonitrile]: < 100 nM.
On to `Cc1ccc(-c2cnc(NC3CCNCC3)nc2-c2ccc(C#N)cc2)cc1` [Example 30, 4-[5-(4-methylphenyl)-2-[(piperidin-4-yl)amino]pyrimidin-4-yl]benzonitrile], for which the IC50 on full-length human LSD1 is < 100 nM.
Same read-out and setting: next, `Cc1ccc(-c2cnc(NCC3CCNCC3)nc2-c2ccc(C#N)cc2)cc1` [Example 32, 4-[5-(4-methylphenyl)-2-[(piperidin-4-ylmethyl)amino]pyrimidin-4-yl]benzonitrile]: < 100 nM; `Cc1ccc(-c2cnc(N3CCC4(CCNC4)C3)nc2-c2ccc(C#N)cc2)cc1` (stereo not drawn) [Example 35, 4-(2-{2,7-diazaspiro[4.4]nonan-2-yl}-5-(4-methylphenyl)pyrimidin-4-yl)benzonitrile]: < 100 nM; `Cc1ccc(-c2cnc(N3CCC4(CCNCC4)C3)nc2-c2ccc(C#N)cc2)cc1` [Example 36, 4-(2-{2,8-diazaspiro[4.5]decan-2-yl}-5-(4-methylphenyl)pyrimidin-4-yl)benzonitrile]: < 100 nM.
Same read-out and setting: under `Cc1ccc(-c2cnc(N3CCC4(CCNC4)CC3)nc2-c2ccc(C#N)cc2)cc1` [Example 39, 4-(2-{2,8-diazaspiro[4.5]decan-8-yl}-5-(4-methylphenyl)pyrimidin-4-yl)benzonitrile] stands < 100 nM; under `Cc1ccc(-c2cnc(N3CCC4(CCCN4)CC3)nc2-c2ccc(C#N)cc2)cc1` [Example 40, 4-(2-{1,8-diazaspiro[4.5]decan-8-yl}-5-(4-methylphenyl)pyrimidin-4-yl)benzonitrile], < 100 nM; under `Cc1ccc(-c2cnc(N3CC4CNCC(C3)O4)nc2-c2ccc(C#N)cc2)cc1` [Example 41, 4-[5-(4-methylphenyl)-2-{9-oxa-3,7-diazabicyclo[3.3.1]nonan-3-yl}pyrimidin-4-yl]benzonitrile], 100 to 1000 nM.
The same measure, in the same setting: under `N#Cc1ccc(-c2nc(N3CC4CNCC(C3)O4)ncc2-c2ccc(F)cc2)cc1` [Example 42, 4-[5-(4-fluorophenyl)-2-{9-oxa-3,7-diazabicyclo[3.3.1]nonan-3-yl}pyrimidin-4-yl]benzonitrile] stands 100 to 1000 nM.
Regarding `Cc1ccc(-c2nc3cnn(C4CCNCC4)c3cc2-c2ccc(C#N)cc2)cc1` [Example 48, 4-[5-(4-methylphenyl)-1-piperidin-4-ylpyrazolo[4,3-b]pyridin-6-yl]benzonitrile], in the assay on THP-1 (AML) cells, the IC50 was > 10000 nM.
On to `COc1ncc(-c2cnc(N3CCC(N)CC3)nc2-c2ccc(C#N)cc2)cn1` [Example 74, 4-[2-(4-aminopiperidin-1-yl)-5-(2-methoxypyrimidin-5-yl)pyrimidin-4-yl]benzonitrile], for which the IC50 at full-length human LSD1 was < 100 nM.
Still for that read-out and setting: next, `Cc1nc2cc(-c3cnc(N4CCC(N)CC4)nc3-c3ccc(C#N)cc3)ccc2n1C` [Example 75, 4-[2-(4-aminopiperidin-1-yl)-5-(1,2-dimethylbenzimidazol-5-yl)pyrimidin-4-yl]benzonitrile]: < 100 nM; `N#Cc1ccc(-c2nc(N3CCC(N)CC3)ncc2-c2ccn3ncnc3c2)cc1` [Example 81, 4-[2-(4-aminopiperidin-1-yl)-5-([1,2,4]triazdo[1,5-a]pyridin-7-yl)pyrimidin-4-yl]benzonitrile]: 100 to 1000 nM; `Cn1cc2nc(-c3cnc(N4CCC(N)CC4)nc3-c3ccc(C#N)cc3)ncc2n1` [Example 86]: 100 to 1000 nM.
Regarding `Cn1ncc2nc(-c3cnc(N4CCC(N)CC4)nc3-c3ccc(C#N)cc3)ncc21` [Example 88, 4-[2-(4-aminopiperidin-1-yl)-5-(1-methylpyrazolo[4,3-d]pyrimidin-5-yl)pyrimidin-4-yl]benzonitrile], the IC50 on full-length human LSD1 was in the range of 100 to 1000 nM.
On the same count and under the same terms, next, `Cc1ncc(-c2cnc(N3CCC(N)CC3)nc2-c2ccc(C#N)cc2)cn1` [Example 90, 4-[2-(4-aminopiperidin-1-yl)-5-(2-methylpyrimidin-5-yl)pyrimidin-4-yl]benzonitrile]: < 100 nM; `Cc1nn(C)cc1-c1cnc(N2CCC3CNCC3CC2)nc1-c1ccc(C#N)cc1` (stereo not drawn) [Example 118, 4-[2-(2,3,3a,4,5,7,8,8a-octahydro-1H-pyrrolo[3,4-d]azepin-6-yl)-5-(1,3-dimethylpyrazol-4-yl)pyrimidin-4-yl]benzonitrile]: < 100 nM; `N#Cc1ccc(-c2nc(N3CCC4(CCNC4)CC3)ncc2-c2cnn(CC(F)(F)F)c2)cc1` [Example 121, 4-[2-(2,8-diazaspiro[4.5]decan-8-yl)-5-[1-(2,2,2-trifluoroethyl)pyrazol-4-yl]pyrimidin-4-yl]benzonitrile]: < 100 nM.
Consider `N#Cc1ccc(-c2nc(N3CCC(N)CC3)ncc2-c2ccc3ncnn3c2)cc1` [Example 127, 4-[2-(4-aminopiperidin-1-yl)-5-([1,2,4]triazolo[1,5-a]pyridin-6-yl)pyrimidin-4-yl]benzonitrile], for which the IC50 on full-length human LSD1 lay in the range of 100 to 1000 nM.
